Marks after values point to notes of the source that are not given here.
System: Propionibacterium acnes NCTC 737
Test: fixed ratio combination MIC/MBC assay
Assay type: cell-based
Settings: for MBC / MIC: test compound alone; for MBC: P. acnes NCTC 737; for MIC: P. acnes NCTC 737, pH 6.0, anaerobic, 37° C., 72 hours; for active against P. acnes NCTC 737: compound alone, statement in words
Description: The test organism used was Propionibacterium acnes NCTC 737. This is a propionibacterial strain and is the type strain of the […]; it is fully susceptible to antibiotics. The propionibacteria are clinically significant due to their involvement in acne. They are also opportunistic pathogens in compromised hosts. Activity observed against these micro-organisms is expected to be a good predictor of activity against acne. The propionibacteria were cultured and maintained on Wilkins-Chalgren Anaerobe Medium (agar and broth) at pH 6.0; all cultures were incubated anaerobically at 37° C. for 72 hours. The following “fixed ratio combination MIC/MBC assay” was carried out to assess antimicrobial activity against the test organism. The method used a sterile 96-well microtitre plate, capable of holding about 200 μl of liquid per well. […] The culture medium was as described above. The wells were inoculated with a liquid suspension of freshly grown micro-organism and incubated under the conditions described above. After incubation, the microtitre plate was examined visually (with the aid of a light box) for cloudiness in each well, which would indicate microbial growth. The minimum inhibitory concentration (MIC) value was recorded as the lowest concentration of test compound alone, or the lowest concentration of the mixture of the two test compounds, required to inhibit microbial growth, i.e. where the liquid in the well remained clear. The assays were conducted in triplicate and included both negative (culture medium with no micro-organisms) and positive (culture medium plus diluting solvent(s) plus micro-organism) controls. […] These samples were then individually sub-cultured on antibiotic-free agar medium, under the incubation conditions described above. Following incubation they were examined visually for microbial growth. […] A fractional inhibitory concentration index (FICI) or fractional bactericidal concentration index (FBCI) was then calculated for each compound in the relevant mixture, and these two indices were added together to give an overall FICI or FBCI to indicate the mode of interaction. Thus for each mixture (of two compounds A and B) which was tested, the FIC for compound A (FICA)=MIC for (A+B)/MIC for A alone. Similarly the FIC for compound B (FICB)=MIC for (A+B)/MIC for B alone. The overall […]. FBCs and FBCIs were calculated in the same manner, using recorded MBC values.

Compound	MBC	MIC	active against P. acnes NCTC 737
CC(=O)[O-].[Cu+] [Copper (I) acetate, copper (I) acetate]	22.2 µg/mL	11.1 µg/mL	–
CC(=O)c1c(O)c(C)c(O)c2c1OC1=CC(=O)C(C(C)=O)C(=O)C12C (stereo not drawn) [Usnic acid, 2,6-diacetyl-7,9-dihydroxy-8,9b-dimethyl-1,3(2H,9bh)-dibenzofurandione]	–	–	active
[Cl][Bi]([Cl])[Cl] [Bismuth (III) chloride, bismuth (III) chloride]	>19* μg/ml	19 µg/mL	active
copper (II) D-gluconate	>41.1* μg/ml	>41.1* μg/ml	–
O=S(=O)([O-])[O-].[Cu+2] [Copper (II) sulphate, copper (II) sulphate]	>14.5* μg/ml	>14.5* μg/ml	active
[Cl][Cu][Cl] [Copper (II) chloride, copper (II) chloride]	>22.25* μg/ml	12.2 µg/mL	–
CC(=O)[O-].CC(=O)[O-].[Cu+2] [Copper (II) acetate, copper (II) acetate]	>16.8* μg/ml	16.8 µg/mL	–

— patent US20130316016A1, “ANTIBACTERIAL OR ANTI-ACNE FORMULATIONS CONTAINING USNIC ACID OR AN USNATE AND A METAL SALT” (EVOCUTIS PLC, priority 2010, published 2013)
